The text below walks through data of patent US10092584B2 (Achillion Pharmaceuticals, Inc., priority 2015, dated 2018).

pIC50: −log10 of the molar value.

The target of the first assay is T1, Human Factor D (Homo sapiens, UniProt P00746).
T1 construct: purified from human serum; purchased Complement Technology, Inc; host or cells: human serum
T1 sequence (P00746 26-253): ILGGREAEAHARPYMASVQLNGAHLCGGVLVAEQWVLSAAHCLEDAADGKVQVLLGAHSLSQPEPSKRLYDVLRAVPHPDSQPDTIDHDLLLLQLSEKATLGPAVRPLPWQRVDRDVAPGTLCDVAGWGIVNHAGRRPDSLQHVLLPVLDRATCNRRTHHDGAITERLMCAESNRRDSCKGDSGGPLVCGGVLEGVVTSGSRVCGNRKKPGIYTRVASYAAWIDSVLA
In words: Human Factor D assay (Example 8). The class given is biochemical.
Conditions: not given
As to the method:
Human Factor D (purified from human serum, Complement Technology, Inc.) at 80 nM final concentration was incubated with test compound at various concentrations for 5 minutes at room temperature in 50 mM Tris, 1M NaCl, pH 7.5. A synthetic substrate Z-L-Lys-SBzl and DTNB (Ellman's reagent) are added to final concentrations of 100 μM each. […] IC50 values are calculated by nonlinear regression of complement Factor D reaction rates as a function of test compound concentration.
In the case of `CC(=O)c1cn(CC(=O)N2C[C@H](F)C[C@H]2C(=O)Nc2cccc(-c3ccccc3Cl)c2F)c2c(C#N)cccc12` [Compound 79, (2S,4R)-1-(2-(3-acetyl-7-cyano-1H-indol-1-yl)acetyl)-N-(2′-chloro-2-fluorobiphenyl-3-yl)-4-fluoropyrrolidine-2-carboxamide], the negative-log IC50 (pIC50) (in general, the negative decadic logarithm of the IC50, by convention in mol/L) was greater than 6.00.
Compound `NC(=O)c1nn(CC(=O)N2C[C@H](F)C[C@H]2C(=O)Nc2cccc(-c3cc(F)c(F)cc3Cl)c2F)c2ccccc12` [Compound 80, 1-(2-((2S,4R)-2-((2′-Chloro-2,4′,5′-trifluoro-[1,1′-biphenyl]-3-yl)carbamoyl)-4-fluoropyrrolidin-1-yl)-2-oxoethyl)-1H-indazole-3-carboxamide] showed a pIC50 greater than 6.00.
Compound `CC(=O)c1cn(CC(=O)N2C[C@H](F)C[C@H]2C(=O)Nc2cccc(Br)n2)c2ccc(C3(N4C(=O)c5ccccc5C4=O)CC3)cc12` [Compound 81, (2S,4R)-1-(2-(3-acetyl-5-(1-(1,3-dioxoisoindolin-2-yl)cyclopropyl)-1H-indol-1-yl)acetyl)-N-(6-bromopyridin-2-yl)-4-fluoropyrrolidine-2-carboxamide] gave a pIC50 greater than 6.00.
Still for that read-out and setting: the figure for `CC(=O)c1cn(CC(=O)N2C[C@H](F)C[C@H]2C(=O)Nc2cccc(-c3cc(F)c(F)cc3Cl)c2F)c2ccccc12` [Compound 82, (2S,4R)-1-(2-(3-acetyl-1H-indol-1-yl)acetyl)-N-(2′-chloro-2,4′,5′-trifluorobiphenyl-3-yl)-4-fluoropyrrolidine-2-carboxamide] is greater than 6.00; for `NC(=O)c1nn(CC(=O)N2C[C@H](F)C[C@H]2C(=O)Nc2cccc(-c3ccc(F)c(F)c3Cl)c2F)c2ccccc12` [Compound 92, 1-(2-((2S,4R)-2-(2′-chloro-2,3′,4′-trifluorobiphenyl-3-ylcarbamoyl)-4-fluoropyrrolidin-1-yl)-2-oxoethyl)-1H-indazole-3-carboxamide] it is greater than 6.00.
In turn, `CC(=O)c1cn(CC(=O)N2C[C@H](F)C[C@H]2C(=O)Nc2cccc(-c3ccc(F)c(F)c3Cl)c2F)c2ccccc12` [Compound 93, (2S,4R)-1-(2-(3-acetyl-1H-indol-1-yl)acetyl)-N-(2′-chloro-2,3′,4′-trifluorobiphenyl-3-yl)-4-fluoropyrrolidine-2-carboxamide] showed a pIC50 greater than 6.00.
As to `NC(=O)c1nn(CC(=O)N2C[C@H](F)C[C@H]2C(=O)Nc2cccc(-c3cc(F)cc(F)c3Cl)c2F)c2ccccc12` [Compound 94, 1-(2-((2S,4R)-2-(2′-chloro-2,3′,5′-trifluorobiphenyl-3-ylcarbamoyl)-4-fluoropyrrolidin-1-yl)-2-oxoethyl)-1H-indazole-3-carboxamide], the pIC50 is greater than 6.00.
`CC(=O)c1cn(CC(=O)N2C[C@H](F)C[C@H]2C(=O)Nc2cccc(-c3cc(F)cc(F)c3Cl)c2F)c2ccccc12` [Compound 95, (2S,4R)-1-(2-(3-acetyl-1H-indol-1-yl)acetyl)-N-(2′-chloro-2,3′,5′-trifluorobiphenyl-3-yl)-4-fluoropyrrolidine-2-carboxamide] had a pIC50 greater than 6.00.
For the compound `CC(=O)c1cn(CC(=O)N2C[C@H](F)C[C@H]2C(=O)Nc2cccc(-c3ccccc3Cl)c2F)c2cccc(C#N)c12` [Compound 97, (2S,4R)-1-(2-(3-acetyl-4-cyano-1H-indol-1-yl)acetyl)-N-(2′-chloro-2-fluorobiphenyl-3-yl)-4-fluoropyrrolidine-2-carboxamide], the pIC50 is greater than 6.00.

Still in this assay, the particulars now being: Table 1; Human Factor D 80 nM, substrate Z-L-Lys-SBzl; read-out: IC50.
Consider `C=C(F)c1nn(CC(=O)N2C[C@H](F)C[C@H]2C(=O)NCc2cccc(Cl)c2F)c2cnccc12` [Compound 74, (2S,4R)-N-(3-chloro-2-fluorobenzyl)-4-fluoro-1-(2-(3-(1-fluorovinyl)-1H-pyrazolo[3,4-c]pyridin-1-yl)acetyl)pyrrolidine-2-carboxamide], for which the pIC50 was greater than 6.00.
As to `O=C(NCc1cccc(Cl)c1F)[C@@H]1C[C@@H](F)CN1C(=O)Cn1nc(-c2cnc[nH]2)c2ccncc21` [Compound 75, (2S,4R)-1-(2-(3-(1H-imidazol-5-yl)-1H-pyrazolo[3,4-c]pyridin-1-yl)acetyl)-N-(3-chloro-2-fluorobenzyl)-4-fluoropyrrolidine-2-carboxamide], the pIC50 is greater than 6.00.
For `NS(=O)(=O)c1cn(CC(=O)N2C[C@H](F)C[C@H]2C(=O)NCc2cccc(Cl)c2F)c2ccccc12` [Compound 76, (2S,4R)-N-(3-chloro-2-fluorobenzyl)-4-fluoro-1-(2-(3-sulfamoyl-1H-indol-1-yl)acetyl)pyrrolidine-2-carboxamide], the pIC50 is greater than 6.00.
Same read-out and setting: the figure for `NC(=O)c1nn(CC(=O)N2[C@@H]3C[C@@H]3C[C@H]2C(=O)Nc2cccc(-c3ccccc3Cl)c2F)cc1Br` [Compound 77, (1R,3S,5R)-2-(2-(4-Bromo-3-carbamoyl-1H-pyrazol-1-yl)acetyl)-N-(2′-chloro-2-fluoro-[1,1′-biphenyl]-3-yl)-2-azabicyclo[3.1.0]hexane-3-carboxamide] is greater than 6.00; for `NC(=O)c1nn(CC(=O)N2C[C@H](F)C[C@H]2C(=O)Nc2cccc(-c3cc(F)c(F)cc3Cl)c2F)c2cnccc12` [Compound 83, 1-(2-((2S,4R)-2-(2′-chloro-2,4′,5′-trifluorobiphenyl-3-ylcarbamoyl)-4-fluoropyrrolidin-1-yl)-2-oxoethyl)-1H-pyrazolo[3,4-c]pyridine-3-carboxamide] it is greater than 6.00.
In the case of `CC(=O)n1cc(CC(=O)N2C[C@H](F)C[C@H]2C(=O)Nc2cccc(-c3ccccc3Cl)c2F)c2ccsc21` [Compound 90, (2S,4R)-1-(2-(6-acetyl-6H-thieno[2,3-b]pyrrol-4-yl)acetyl)-N-(2′-chloro-2-fluorobiphenyl-3-yl)-4-fluoropyrrolidine-2-carboxamide], the pIC50 is greater than 6.00.
For the compound `CC(=O)Nc1cccc2c1c(C(C)=O)cn2CC(=O)N1C[C@H](F)C[C@H]1C(=O)Nc1cccc(-c2ccccc2Cl)c1F` [Compound 91, (2S,4R)-1-(2-(4-acetamido-3-acetyl-1H-indol-1-yl)acetyl)-N-(2′-chloro-2-fluorobiphenyl-3-yl)-4-fluoropyrrolidine-2-carboxamide], the pIC50 is less than 5.00.
Take `NC(=O)c1cn(CC(=O)N2C[C@H](F)C[C@H]2C(=O)Nc2cccc(-c3ccccc3Cl)c2F)c2sccc12` [Compound 98, 6-(2-((2S,4R)-2-(2′-chloro-2-fluorobiphenyl-3-ylcarbamoyl)-4-fluoropyrrolidin-1-yl)-2-oxoethyl)-6H-thieno[2,3-b]pyrrole-4-carboxamide]: the pIC50 was greater than 6.00.
Turning to `NC(=O)c1nn(CC(=O)N2C[C@H](F)C[C@H]2C(=O)Nc2cccc(-c3ccccc3Cl)c2F)c2ccsc12` [Compound 99, 1-(2-((2S,4R)-2-((2′-Chloro-2-fluoro-[1,1′-biphenyl]-3-yl)carbamoyl)-4-fluoropyrrolidin-1-yl)-2-oxoethyl)-1H-thieno[3,2-c]pyrazole-3-carboxamide], the pIC50 was greater than 6.00.
For the compound `NC(=O)c1nn(CC(=O)N2C[C@H](F)C[C@H]2C(=O)Nc2cccc(-c3c(F)cc(F)cc3Cl)n2)c2cnccc12` [Compound 100, 1-(2-((2S,4R)-2-(6-(2-chloro-4,6-difluorophenyl)pyridin-2-ylcarbamoyl)-4-fluoropyrrolidin-1-yl)-2-oxoethyl)-1H-pyrazolo[3,4-c]pyridine-3-carboxamide], the pIC50 is greater than 6.00.
